Experimental findings from ChEMBL document CHEMBL1201862, “PubChem BioAssay data set” (2004) are described below.

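Cultured in 96-well plates, cells were exposed to test compound for 48 hours across five concentrations. The concentration for 50% growth inhibition is given as GI50.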 Activity calls are given as the source filed them. No stated cut-off is given here; in the data, active = GI50 up to about 1.1 µM and inactive = higher.

Among the test systems are 786-0; A498; HCT-15; HL-60; HT-29; KM12; M14; MDA-MB-435; NCI-H226; OVCAR-8; RXF 393; SF-539; SN12C; SNB-19; UO-31; A549; NCI-H460; NCI-H522; OVCAR-4; HCC 2998.
Common to all, as to assay: NCI-60 cell line screen, 48 h

With `O=C(c1ccc(Cl)cc1Cl)N(C(=O)N1CCCCC1)c1ccccc1`, the GI50 was > 100 µM (inactive) in the experiment on 786-0; > 100 µM (inactive) in the experiment with A498; greater than 100 µM with HCT-15; > 100 µM (inactive) with HL-60; > 100 µM (inactive) in the experiment with HT-29; > 100 µM (inactive) in the experiment with KM12. Moreover, the GI50 in the experiment on M14, in the experiment with MDA-MB-435, in the experiment with NCI-H226, in the experiment on OVCAR-8, with RXF 393 and with SF-539 was > 100 µM (inactive) throughout. Besides, the GI50 in the experiment with SN12C, with SNB-19 and in the experiment on UO-31 was > 100 µM (inactive) throughout.

On to `COc1cc(O)c(C(=O)/C=C/c2ccc(O)cc2)cc1Oc1ccc(/C=C/C(=O)c2ccc(O)cc2O)cc1` [RHUSCHALCONE III], for which the GI50 in the experiment with 786-0 was 8.73 µM (inactive); in the experiment with A498, 6.93 µM (inactive); with A549 it was 14.8 µM (inactive); with HCT-15 it was 8.85 µM; in the experiment with HL-60 it was 10.4 µM (inactive); in the experiment with HT-29, 7.57 µM (inactive). Besides, the GI50 is 6.75 µM (inactive) in the experiment on KM12; 9.62 µM (inactive) in the experiment with M14; 8.77 µM (inactive) in the experiment on MDA-MB-435; 11.6 µM (inactive) in the experiment on NCI-H460; 7.41 µM (inactive) in the experiment with NCI-H522; 8.07 µM (inactive) with OVCAR-4. Further, the GI50 was 9.02 µM (inactive) in the experiment with OVCAR-8; 8.2 µM (inactive) in the experiment with RXF 393; 8.89 µM (inactive) in the experiment on SF-539; 8.81 µM (inactive) in the experiment on SN12C; 12.9 µM (inactive) with SNB-19; 9.48 µM (inactive) in the experiment on UO-31.

As to `Cc1cc(Cc2c(F)c(F)c(Cc3cc(C)no3)c(F)c2F)on1`, the GI50 with 786-0 is 38.8 µM (inactive); in the experiment on A498, > 100 µM (inactive); in the experiment with A549 it was 12.9 µM (inactive); in the experiment on HCT-15, greater than 100 µM; with HL-60, > 100 µM (inactive); with HT-29, > 100 µM (inactive). Further, the GI50 in the experiment on M14 is > 100 µM (inactive); in the experiment with MDA-MB-435, > 100 µM (inactive); in the experiment on NCI-H226 it was > 100 µM (inactive); in the experiment on NCI-H522, > 100 µM (inactive); in the experiment on OVCAR-4, > 100 µM (inactive); in the experiment with OVCAR-8, 83.9 µM (inactive). In addition, the GI50 is 33 µM (inactive) with RXF 393; 47.6 µM (inactive) with SF-539; > 100 µM (inactive) in the experiment with SN12C; 36.7 µM (inactive) in the experiment on SNB-19; > 100 µM (inactive) in the experiment on UO-31.

For `COC(=O)C(NC(=O)C12CCC(C)(C(=O)O1)C2(C)C)c1cc(C(C)(C)C)c(O)c(C(C)(C)C)c1` (stereo not drawn), the GI50 with 786-0 was > 100 µM (inactive); in the experiment with A498, > 100 µM (inactive); with A549 it was > 100 µM (inactive); with HCT-15, 91.2 µM; in the experiment with HL-60, 4.95 µM (inactive); in the experiment on HT-29, 72.9 µM (inactive). Further, the GI50 was 23.5 µM (inactive) in the experiment with KM12; > 100 µM (inactive) in the experiment on M14; > 100 µM (inactive) in the experiment with MDA-MB-435; > 100 µM (inactive) in the experiment with NCI-H226; > 100 µM (inactive) in the experiment with NCI-H522; > 100 µM (inactive) in the experiment on OVCAR-4. Also, the GI50 is > 100 µM (inactive) in the experiment with OVCAR-8; 83.2 µM (inactive) in the experiment on RXF 393; > 100 µM (inactive) in the experiment with SF-539; > 100 µM (inactive) with SNB-19; 95.9 µM (inactive) in the experiment on UO-31.

Consider `CC(C)(C)NC1C2CCC(C)(C1O)C2(C)C` (stereo not drawn), for which the GI50 in the experiment on 786-0 is > 100 µM (inactive); with A498, 2.35 µM (inactive); in the experiment with A549, > 100 µM (inactive); in the experiment on HCC 2998 it was > 100 µM (inactive); in the experiment with HCT-15 it was greater than 100 µM; in the experiment with HT-29, > 100 µM (inactive). Moreover, the GI50 in the experiment with KM12, in the experiment on M14, with MDA-MB-435, in the experiment on NCI-H460, with OVCAR-4 and with OVCAR-8 was > 100 µM (inactive) in each case. Besides, the GI50 with RXF 393, in the experiment on SF-539, with SNB-19 and in the experiment with UO-31 was > 100 µM (inactive) each time.
